Source: patent US8906904B2, “Alkoxy pyrazoles as soluble guanylate cyclase activators” (Boehringer Ingelheim International GmbH, priority 2012, dated 2014)
Converted amounts (≈) assume the structure as drawn.

Experiment: Assessment of solubility (McIlvaine buffers, 24 h shake, UPLC-UV)
Assay type: physicochemical
Details: kinetic from dmso stock
Method in brief: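 Compounds from 10 mM DMSO stocks were shaken for 24 h at room temperature in McIlvaine buffers at pH 2.2, 4.5 and 6.8 (2.5% v/v DMSO final), then filtered. Filtrates were quantified by UPLC-UV at 254 nm against a 50:50 acetonitrile/water reference assumed fully dissolved, as a single determination.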

Row | solubility at 24 h (pH 2.2, aqueous buffer) [µg/mL] | solubility at 24 h (pH 4.5, aqueous buffer) [µg/mL] | solubility at 24 h (pH 6.8, aqueous buffer) [µg/mL] | SMILES
1 | 110 (≈ 184 µM) | 84 (≈ 141 µM) | 74 (≈ 124 µM) | CCOc1c(C(=O)O)cnn1-c1cccc(-c2cccc(C)c2OCc2ccc3c(c2)CCN(C2CC(C)OC(C)C2)C3)n1 (stereo not drawn) [Compound 65]
2 | 110 (≈ 180 µM) | 94 (≈ 154 µM) | 95 (≈ 156 µM) | CCOc1c(C(=O)O)cnn1-c1cccc(-c2cccc(C)c2OCc2ccc3c(c2)CCN(CC2CCOC(C)(C)C2)C3)n1 (stereo not drawn) [Compound 80]
3 | 130 (≈ 223 µM) | 92 (≈ 158 µM) | 81 (≈ 139 µM) | COc1c(C(=O)O)cnn1-c1cccc(-c2cccc(C)c2OCc2ccc3c(c2)C(C)(C)CN(C2CCOCC2)C3)n1 [Compound 89]
4 | 99 (≈ 170 µM) | 81 (≈ 139 µM) | 85 (≈ 146 µM) | Cc1cccc(-c2cccc(-n3ncc(C(=O)O)c3OC(C)C)n2)c1OCc1ccc2c(c1)CCN(CC1(C)COC1)C2 [Compound 40]
5 | 96 (≈ 169 µM) | 75 (≈ 132 µM) | 80 (≈ 141 µM) | Cc1cccc(-c2cccc(-n3ncc(C(=O)O)c3OC(C)C)n2)c1OCc1ccc2c(c1)CCN(C1CCOC1)C2 (stereo not drawn) [Compound 41]
6 | 83 (≈ 151 µM) | 58 (≈ 106 µM) | 73 (≈ 133 µM) | COc1c(C(=O)O)cnn1-c1cccc(-c2cc(F)cc(F)c2OCc2ccc3c(c2)CCN(C2COC2)C3)n1 [Compound 52]
7 | 91 (≈ 156 µM) | 77 (≈ 132 µM) | 80 (≈ 137 µM) | CCOc1c(C(=O)O)cnn1-c1cccc(-c2cccc(C)c2OCc2ccc3c(c2)CCN(CC2CCOCC2)C3)n1 [Compound 69]
8 | 120 (≈ 238 µM) | 79 (≈ 156 µM) | 75 (≈ 149 µM) | CCOc1c(C(=O)O)cnn1-c1cccc(-c2cccc(Cl)c2OCc2ccc3c(c2)CCNC3)n1 [Compound 50]
9 | 100 (≈ 172 µM) | 86 (≈ 148 µM) | 89 (≈ 153 µM) | CCOc1c(C(=O)O)cnn1-c1cccc(-c2cccc(C)c2OCc2ccc3c(c2)CCN(C2CCOC(C)C2)C3)n1 (stereo not drawn) [Compound 78]
10 | 95 (≈ 163 µM) | 80 (≈ 137 µM) | 87 (≈ 149 µM) | Cc1cccc(-c2cccc(-n3ncc(C(=O)O)c3OC(C)C)n2)c1OCc1ccc2c(c1)CCN(C1CCOCC1)C2 [Compound 1, 5-isopropoxy-1-(6-{3-methyl-2-[2-(tetrahydro-pyran-4-yl)-1,2,3,4-tetrahydro-isoquinolin-6-ylmethoxy]-phenyl}-pyridin-2-yl)-1H-pyrazole-4-carboxylic acid]
11 | 110 (≈ 193 µM) | 93 (≈ 163 µM) | 96 (≈ 168 µM) | COc1c(C(=O)O)cnn1-c1cccc(-c2cccc(C)c2OCc2ccc3c(c2)CCN(CC2COCCO2)C3)n1 (stereo not drawn) [Compound 92]
12 | 91 (≈ 155 µM) | 68 (≈ 116 µM) | 73 (≈ 124 µM) | CCOc1c(C(=O)O)cnn1-c1cccc(-c2cccc(C)c2OCc2ccc3c(c2)CCN(C2CCOCC2F)C3)n1 (stereo not drawn) [Compound 94]
13 | 96 (≈ 169 µM) | 83 (≈ 146 µM) | 87 (≈ 153 µM) | CCOc1c(C(=O)O)cnn1-c1cccc(-c2cccc(C)c2OCc2ccc3c(c2)CCN(C2CCOCC2)C3)n1 [Compound 77]
14 | 100 (≈ 170 µM) | 78 (≈ 132 µM) | 75 (≈ 127 µM) | CCOc1c(C(=O)O)cnn1-c1cccc(-c2cccc(Cl)c2OCc2ccc3c(c2)CCN(C2CCOCC2)C3)n1 [Compound 54]
15 | 110 (≈ 177 µM) | 86 (≈ 138 µM) | 89 (≈ 143 µM) | COc1c(C(=O)O)cnn1-c1cccc(-c2cccc(C(F)(F)F)c2OCc2ccc3c(c2C)CCN(C2CCOCC2)C3)n1 [Compound 84]
16 | 86 (≈ 141 µM) | 67 (≈ 110 µM) | 71 (≈ 116 µM) | COc1c(C(=O)O)cnn1-c1cccc(-c2cccc(C)c2OCc2ccc3c(c2)CCN(C2CC(C)(C)OC(C)(C)C2)C3)n1 [Compound 73]
17 | 93 (≈ 160 µM) | 75 (≈ 129 µM) | 78 (≈ 134 µM) | Cc1cccc(-c2cccc(-n3ncc(C(=O)O)c3OC(C)C)n2)c1OCc1ccc2c(c1)CCN(C1CCCOC1)C2 (stereo not drawn) [Compound 42]
18 | 100 (≈ 172 µM) | 81 (≈ 139 µM) | 81 (≈ 139 µM) | COc1c(C(=O)O)cnn1-c1cccc(-c2cccc(C)c2OCc2ccc3c(c2)CCN([C@H]2CC[C@H](OC)CC2)C3)n1 [Compound 90]
19 | 100 (≈ 180 µM) | 81 (≈ 146 µM) | 75 (≈ 135 µM) | COc1c(C(=O)O)cnn1-c1cccc(-c2cccc(C)c2OCc2ccc3c(c2C)CCN(CC(C)(C)C)C3)n1 [Compound 30]
20 | 110 (≈ 189 µM) | 87 (≈ 150 µM) | 90 (≈ 155 µM) | COc1c(C(=O)O)cnn1-c1cccc(-c2cccc(C)c2OCc2ccc3c(c2)CCN(C2CC4CCC(C2)O4)C3)n1 (stereo not drawn) [Compound 87]
21 | 92 (≈ 170 µM) | 74 (≈ 137 µM) | 78 (≈ 144 µM) | Cc1cccc(-c2cccc(-n3ncc(C(=O)O)c3OC(C)C)n2)c1OCc1ccc2c(c1)CCN(C(C)C)C2 [Compound 37]
22 | 110 (≈ 178 µM) | 83 (≈ 135 µM) | 88 (≈ 143 µM) | Cc1cccc(-c2cccc(-n3ncc(C(=O)O)c3OC(C)C)n2)c1OCc1ccc2c(c1)CCN(C1CCC(F)(F)CC1)C2 [Compound 2]

Row | solubility at 24 h (pH 2.2, aqueous buffer) [µg/mL] | solubility at 24 h (pH 4.5, aqueous buffer) [µg/mL] | solubility at 24 h (pH 6.8, aqueous buffer) [µg/mL] | SMILES
23 | 96 (≈ 173 µM) | 79 (≈ 142 µM) | 81 (≈ 146 µM) | COc1c(C(=O)O)cnn1-c1cccc(-c2cccc(C)c2OCc2ccc3c(c2)CCN(C2CCOCC2)C3)n1 [Compound 3]
24 | 82 (≈ 144 µM) | 61 (≈ 107 µM) | 73 (≈ 128 µM) | Cc1cccc(-c2cccc(-n3ncc(C(=O)O)c3OC(C)C)n2)c1OCc1ccc2c(c1C)CCN(C1COC1)C2 [Compound 45]
25 | 100 (≈ 168 µM) | 82 (≈ 137 µM) | 86 (≈ 144 µM) | Cc1cccc(-c2cccc(-n3ncc(C(=O)O)c3OC(C)C)n2)c1OCc1ccc2c(c1C)CCN(CC1(C)COC1)C2 [Compound 46]
26 | 63 (≈ 106 µM) | 54 (≈ 90.5 µM) | 55 (≈ 92.2 µM) | CCOc1c(C(=O)O)cnn1-c1cccc(-c2cccc(C)c2OCc2ccc3c(c2)CCN(C2CCOC(C)(C)C2)C3)n1 (stereo not drawn) [Compound 66]
27 | 100 (≈ 172 µM) | 66 (≈ 113 µM) | 66 (≈ 113 µM) | CCOc1c(C(=O)O)cnn1-c1cccc(-c2cccc(C)c2OCc2ccc3c(c2)CCN(C2CCOCC2C)C3)n1 (stereo not drawn) [Compound 64]
28 | 120 (≈ 214 µM) | 100 (≈ 178 µM) | 97 (≈ 173 µM) | COc1c(C(=O)O)cnn1-c1cccc(-c2cccc(C)c2OCc2ccc3c(c2)CN(CC2CC(F)(F)C2)C3)n1 [Compound 82]
29 | 87 (≈ 155 µM) | 66 (≈ 117 µM) | 77 (≈ 137 µM) | CCOc1c(C(=O)O)cnn1-c1cccc(-c2cccc(Cl)c2OCc2ccc3c(c2)CCN(C(C)CO)C3)n1 (stereo not drawn) [Compound 56]
30 | 110 (≈ 196 µM) | 83 (≈ 148 µM) | 93 (≈ 166 µM) | CCOc1c(C(=O)O)cnn1-c1cccc(-c2cccc(Cl)c2OCc2ccc3c(c2)CCN(C2COC2)C3)n1 [Compound 51]
31 | 100 (≈ 171 µM) | 85 (≈ 145 µM) | 88 (≈ 151 µM) | COCC(C)N1CCc2c(ccc(COc3c(C)cccc3-c3cccc(-n4ncc(C(=O)O)c4OC(C)C)n3)c2C)C1 (stereo not drawn) [Compound 44]
32 | 91 (≈ 160 µM) | 72 (≈ 127 µM) | 74 (≈ 130 µM) | CCOc1c(C(=O)O)cnn1-c1cccc(-c2cccc(C)c2OCc2ccc3c(c2)CCN(C2CCCOC2)C3)n1 (stereo not drawn) [Compound 36]
33 | 98 (≈ 170 µM) | 48 (≈ 83.5 µM) | 49 (≈ 85.2 µM) | CCOc1c(C(=O)O)cnn1-c1cccc(-c2cccc(Cl)c2OCc2ccc3c(c2)CCN(C2CCOC2)C3)n1 (stereo not drawn) [Compound 55]
34 | 85 (≈ 149 µM) | 71 (≈ 125 µM) | 74 (≈ 130 µM) | CCOc1c(C(=O)O)cnn1-c1cccc(-c2cccc(C)c2OCc2ccc3c(c2)CCN(CC2CCOC2)C3)n1 (stereo not drawn) [Compound 68]
35 | 95 (≈ 152 µM) | 47 (≈ 75.4 µM) | 51 (≈ 81.8 µM) | CCOc1c(C(=O)O)cnn1-c1cccc(-c2cccc(Cl)c2OCc2ccc3c(c2)CCN(C2CCC(F)(F)CC2)C3)n1 [Compound 57]
36 | 110 (≈ 181 µM) | 88 (≈ 145 µM) | 95 (≈ 156 µM) | COc1c(C(=O)O)cnn1-c1cccc(-c2cccc(C(F)(F)F)c2OCc2ccc3c(c2)CCN(C2CCOCC2)C3)n1 [Compound 83]
37 | 100 (≈ 166 µM) | 81 (≈ 134 µM) | 83 (≈ 138 µM) | Cc1cccc(-c2cccc(-n3ncc(C(=O)O)c3OC(C)C)n2)c1OCc1ccc2c(c1)CCN(CC1CC(F)(F)C1)C2 [Compound 4, 1-(6-{2-[2-(3,3-difluoro-cyclobutylmethyl)-1,2,3,4-tetrahydro-isoquinolin-6-ylmethoxy]-3-methyl-phenyl}-pyridin-2-yl)-5-isopropoxy-1H-pyrazole-4-carboxylic acid]
38 | 90 (≈ 144 µM) | 76 (≈ 122 µM) | 78 (≈ 125 µM) | CCOc1c(C(=O)O)cnn1-c1cccc(-c2cccc(C)c2OCc2ccc3c(c2)CCN(C2CC(C)(C)OC(C)(C)C2)C3)n1 [Compound 67]
39 | 110 (≈ 193 µM) | 90 (≈ 158 µM) | 91 (≈ 160 µM) | COc1c(C(=O)O)cnn1-c1cccc(-c2cccc(C)c2OCc2ccc3c(c2)CCN(C2CCOCC2C)C3)n1 (stereo not drawn) [Compound 86]
40 | 110 (≈ 193 µM) | 94 (≈ 165 µM) | 88 (≈ 154 µM) | COCC(C)N1CCc2cc(COc3c(C)cccc3-c3cccc(-n4ncc(C(=O)O)c4OC(C)C)n3)ccc2C1 (stereo not drawn) [Compound 38]
41 | 130 (≈ 223 µM) | 110 (≈ 189 µM) | 99 (≈ 170 µM) | COc1c(C(=O)O)cnn1-c1cccc(-c2cccc(C)c2OCc2ccc3c(c2)CCN(C2CCOC(C)(C)C2)C3)n1 (stereo not drawn) [Compound 61]
42 | 100 (≈ 172 µM) | 81 (≈ 139 µM) | 81 (≈ 139 µM) | COc1c(C(=O)O)cnn1-c1cccc(-c2cccc(C)c2OCc2ccc3c(c2)CCN([C@H]2CC[C@@H](OC)CC2)C3)n1 [Compound 91]
43 | 90 (≈ 151 µM) | 63 (≈ 106 µM) | 75 (≈ 126 µM) | COc1c(C(=O)O)cnn1-c1cccc(-c2cccc(C(F)(F)F)c2OCc2ccc3c(c2C)CCN(C2COC2)C3)n1 [Compound 88]
